Results as given in EP0183129A1, “Quinolonecarboxylic acid derivatives” (KYORIN PHARMACEUTICAL CO., LTD., priority 1984, dated 1986).
≈ marks a conversion by molar mass, not a printed value. Where a name gives a salt, the structure may show the parent alone. Read-outs that look alike come from different tables or passages of the source.

What was measured:
[1] = test system: S. pneumoniae IID 552; assay: In vitro antibacterial activity, MIC (standard strain); format: cell-based; conditions: Streptococcus pneumoniae, IID552; S. pneumoniae IID 552; 10^6 cells/ml; standard strain; read-out: MIC
[2] = test system: Acinetobacter anitratus IID 876; assay: as above; format: cell-based; conditions: Acinetobacter calcoaceticus, IID876, Acinetobacter anitratus IID 876; 10^6 cells/ml; standard strain; read-out: MIC
[3] = test system: Yersinia enterocolitica IID 981; assay: as above; format: cell-based; conditions: IID981; Yersinia enterocolitica IID 981; 10^6 cells/ml; standard strain; read-out: MIC
[4] = test system: P. aeruginosa IFO 12689; assay: as above; format: cell-based, Pseudomonas aeruginosa; conditions: Pseudomonas aeruginosa, IFO12689; P. aeruginosa IFO 12689; 10^6 cells/ml; standard strain; read-out: MIC
[5] = test system: Shigella sonnei IID 969; assay: as above; format: cell-based; conditions: IID969, 10^6 cells/ml
Description: Experiment-1 In vitro antibacterial activity
The in vitro antibacterial activity against gram-positive and gram-negative bacteria has been investivated.
The minimum inhibitory concentration (MIC) was determined in accordance with the method recommended by Japan Society of Chemotherapy.

[6] = test system: B. fragilis 0558; assay: as above; format: cell-based, Bacteroides fragilis; conditions: Bacteroides fragilis, 0558, B. fragilis 0558; 10^6 cells/ml; standard strain; read-out: MIC
[7] = test system: Salmonella entritidis IID 604; assay: as above; format: cell-based; conditions: IID604; Salmonella entritidis IID 604; 10^6 cells/ml; standard strain; read-out: MIC
[8] = test system: S. aureus Smith; assay: as above; format: cell-based, Staphylococcus aureus
[9] = test system: S. agalactiae 4470; assay: In vitro antibacterial activity, MIC (clinical isolates); format: cell-based; conditions: Streptococcus agalactiae; S. agalactiae 4470; 10^6 cells/ml; clinical isolate; read-out: MIC
[10] = test system: S. marcescens GN 7577; assay: In vitro antibacterial activity, MIC (standard strain); format: cell-based; conditions: Serratia marcescens, GN7577; S. marcescens GN 7577; 10^6 cells/ml; standard strain; read-out: MIC
[11] = test system: S. pneumoniae 2054; assay: In vitro antibacterial activity, MIC (clinical isolates); format: cell-based; conditions: Streptococcus pneumoniae; S. pneumoniae 2054; 10^6 cells/ml; clinical isolate; read-out: MIC
[12] = test system: S. pneumoniae 15; assay: as above; format: cell-based; conditions: Streptococcus pneumoniae; S. pneumoniae 15; 10^6 cells/ml; clinical isolate; read-out: MIC
[13] = test system: S. agalactiae 4342; assay: as above; format: cell-based; conditions: Streptococcus agalactiae; S. agalactiae 4342; 10^6 cells/ml; clinical isolate; read-out: MIC
[14] = test system: S. faecalis 214; assay: as above; format: cell-based; conditions: Enterococcus faecalis; S. faecalis 214; 10^6 cells/ml; clinical isolate; read-out: MIC
[15] = test system: E. coli ATCC 10536; assay: In vitro antibacterial activity, MIC (standard strain); format: cell-based; conditions: Escherichia coli, ATCC10536
[16] = test system: S. faecalis 402; assay: In vitro antibacterial activity, MIC (clinical isolates); format: cell-based; conditions: Enterococcus faecalis; S. faecalis 402; 10^6 cells/ml; clinical isolate; read-out: MIC
[17] = test system: Enterobacter cloacae IID 977; assay: In vitro antibacterial activity, MIC (standard strain); format: cell-based; conditions: Enterobacter cloacae, IID977, Enterobacter cloacae IID 977; 10^6 cells/ml; standard strain; read-out: MIC
[18] = test system: S. aureus IID 670 (Terajima); assay: as above; format: cell-based, Staphylococcus aureus; conditions: Staphylococcus aureus
[19] = test system: Clostridium perfringens KYA 13123; assay: microbe, parasite or virus in culture; format: cell-based; conditions: KYA13123
[20] = test system: S. pyogenes 4340; assay: In vitro antibacterial activity, MIC (clinical isolates); format: cell-based; conditions: Streptococcus pyogenes; S. pyogenes 4340; 10^6 cells/ml; clinical isolate; read-out: MIC
[21] = test system: Morganella morganii IID 602; assay: In vitro antibacterial activity, MIC (standard strain); format: cell-based; conditions: IID602; Morganella morganii IID 602; 10^6 cells/ml; standard strain; read-out: MIC
[22] = test system: S. pneumoniae 2950; assay: In vitro antibacterial activity, MIC (clinical isolates); format: cell-based; conditions: Streptococcus pneumoniae; S. pneumoniae 2950; 10^6 cells/ml; clinical isolate; read-out: MIC
[23] = test system: S. pyogenes IID 692; assay: In vitro antibacterial activity, MIC (standard strain); format: cell-based; conditions: Streptococcus pyogenes, IID692; S. pyogenes IID 692; 10^6 cells/ml; standard strain; read-out: MIC
[24] = test system: S. agalactiae 4468; assay: In vitro antibacterial activity, MIC (clinical isolates); format: cell-based; conditions: Streptococcus agalactiae; S. agalactiae 4468; 10^6 cells/ml; clinical isolate; read-out: MIC
[25] = test system: Streptococcus pyogenes S-8; assay: In vitro antibacterial activity, MIC (standard strain); format: cell-based; conditions: S8; Streptococcus pyogenes S-8; 10^6 cells/ml; standard strain; read-out: MIC
[26] = test system: S. faecalis 49; assay: In vitro antibacterial activity, MIC (clinical isolates); format: cell-based; conditions: Enterococcus faecalis; S. faecalis 49; 10^6 cells/ml; clinical isolate; read-out: MIC
[27] = test system: S. pneumoniae 3227; assay: as above; format: cell-based; conditions: Streptococcus pneumoniae; S. pneumoniae 3227; 10^6 cells/ml; clinical isolate; read-out: MIC
[28] = test system: Bacteroides fragilis GM 7000; assay: In vitro antibacterial activity, MIC (standard strain); format: cell-based; conditions: GM7000; Bacteroides fragilis GM 7000; 10^6 cells/ml; standard strain; read-out: MIC
[29] = test system: S. pyogenes 3107; assay: In vitro antibacterial activity, MIC (clinical isolates); format: cell-based; conditions: Streptococcus pyogenes; S. pyogenes 3107; 10^6 cells/ml; clinical isolate; read-out: MIC
[30] = test system: S. faecalis IID 682; assay: In vitro antibacterial activity, MIC (standard strain); format: cell-based; conditions: Enterococcus faecalis, IID682; S. faecalis IID 682; 10^6 cells/ml; standard strain; read-out: MIC
[31] = Staphylococcus aureus, S. aureus Smith, 10^6 cells/ml, standard strain, read-out: MIC
[32] = E. coli ATCC 10536, 10^6 cells/ml, standard strain, read-out: MIC
[33] = IID670, S. aureus IID 670 (Terajima), 10^6 cells/ml, standard strain, read-out: MIC

SMILES	MIC [1]	MIC [2]	MIC [3]	MIC [4]	MIC [5]	MIC [6]	MIC [7]	MIC [10]	MIC [11]	MIC [12]	MIC [13]	MIC [14]	MIC [16]	MIC [17]	MIC [19]	MIC [20]	MIC [21]	MIC [23]	MIC [24]	MIC [25]	other results
NCC1CCN(c2c(F)cc3c(=O)c(C(=O)O)cn(C4CC4)c3c2F)C1 (stereo not drawn) [Example 1, 7-(3-Aminomethyl-l-pyrrolidinyl)-l-cyclopropyl-6,8-difluoro-1,4-dihydro-4-oxo-3-quinolinecarboxylic acid hydrochloride]	0.05 µg/mL	0.1 µg/mL	0.05 µg/mL	0.39 µg/mL	0.025 µg/mL	0.39 µg/mL	0.05 µg/mL	0.78 µg/mL	0.05 µg/mL	0.05 µg/mL	0.05 µg/mL	0.1 µg/mL	0.1 µg/mL	0.1 µg/mL	0.39 µg/mL	0.05 µg/mL	0.1 µg/mL	0.05 µg/mL	0.05 µg/mL	0.05 µg/mL	MIC ([8]; MIC column of Table 3-1, beside ED50 against S. aureus Smith): 0.05 µg/mL; MIC [8, 31]: 0.05 µg/mL; MIC [9]: 0.05 µg/mL; MIC [15, 32]: 0.025 µg/mL; MIC [18, 33]: 0.05 µg/mL; MIC [22]: 0.05 µg/mL; MIC [26]: 0.1 µg/mL; MIC [27]: 0.05 µg/mL; MIC [28]: 0.78 µg/mL; MIC [29]: 0.05 µg/mL; MIC [30]: 0.05 µg/mL
CNCC1CCN(c2c(F)cc3c(=O)c(C(=O)O)cn(C4CC4)c3c2F)C1 (stereo not drawn) [Example 8, 1-Cyclopropyl-6,8-difluoro-1,4-dihydro-7-(3-methylaminomethyl-l-pyrrolidinyl)-4-oxo-3-quinolinecarboxylic acid hydrochloride]	0.05 µg/mL	0.1 µg/mL	0.1 µg/mL	1.56 µg/mL	0.0125 µg/mL	0.39 µg/mL	0.05 µg/mL	1.56 µg/mL	0.05 µg/mL	0.05 µg/mL	0.2 µg/mL	0.05 µg/mL	0.2 µg/mL	0.1 µg/mL	0.39 µg/mL	0.05 µg/mL	0.2 µg/mL	0.05 µg/mL	0.1 µg/mL	0.05 µg/mL	MIC [8, 31]: 0.025 µg/mL; MIC [15, 32]: 0.025 µg/mL; MIC [18, 33]: 0.025 µg/mL; MIC [22]: 0.1 µg/mL; MIC [26]: 0.1 µg/mL; MIC [28]: 0.78 µg/mL; MIC [29]: 0.05 µg/mL; MIC [30]: 0.1 µg/mL
CNCC1CCN(c2c(F)cc3c(=O)c(C(=O)O)cn(C4CC4)c3c2Cl)C1 (stereo not drawn) [Example 12, 8-Chloro-l-cyclopropyl-6-fluoro-1,4-dihydro-7-(3-methylaminomethyl-1-pyrrolidinyl)-4-oxo-3-quinolinecarboxylic acid hydrochloride]	0.05 µg/mL	0.05 µg/mL	0.05 µg/mL	0.78 µg/mL	0.025 µg/mL	0.1 µg/mL	0.05 µg/mL	0.78 µg/mL	0.05 µg/mL	0.05 µg/mL	0.05 µg/mL	0.1 µg/mL	0.1 µg/mL	0.05 µg/mL	0.1 µg/mL	0.05 µg/mL	0.1 µg/mL	0.05 µg/mL	0.05 µg/mL	0.05 µg/mL	MIC [8, 31]: 0.025 µg/mL; MIC [9]: 0.05 µg/mL; MIC [15, 32]: 0.025 µg/mL; MIC [18, 33]: 0.025 µg/mL; MIC [26]: 0.05 µg/mL; MIC [27]: 0.05 µg/mL; MIC [28]: 0.2 µg/mL; MIC [29]: 0.05 µg/mL; MIC [30]: 0.05 µg/mL
CCNCC1CCN(c2c(F)cc3c(=O)c(C(=O)O)cn(C4CC4)c3c2Cl)C1 (stereo not drawn) [Example 13, 8-Chloro-l-cyclorpropyl-6-fluoro-1,4-dihydro-7-(3-ethylaminomethyl-l-pyrrolidinyl)-4-oxo-3-quinolinecarboxylic acid]	0.05 µg/mL (≈ 0.123 µM)	0.05 µg/mL (≈ 0.123 µM)	0.1 µg/mL (≈ 0.245 µM)	1.56 µg/mL (≈ 3.82 µM)	0.025 µg/mL (≈ 0.0613 µM)	0.1 µg/mL (≈ 0.245 µM)	0.05 µg/mL (≈ 0.123 µM)	0.78 µg/mL (≈ 1.91 µM)	0.05 µg/mL (≈ 0.123 µM)	0.025 µg/mL (≈ 0.0613 µM)	0.05 µg/mL (≈ 0.123 µM)	0.1 µg/mL (≈ 0.245 µM)	0.1 µg/mL (≈ 0.245 µM)	0.1 µg/mL (≈ 0.245 µM)	0.05 µg/mL (≈ 0.123 µM)	0.05 µg/mL (≈ 0.123 µM)	0.1 µg/mL (≈ 0.245 µM)	0.05 µg/mL (≈ 0.123 µM)	0.05 µg/mL (≈ 0.123 µM)	0.05 µg/mL (≈ 0.123 µM)	MIC [8, 31]: 0.025 µg/mL (≈ 0.0613 µM); MIC [9]: 0.05 µg/mL (≈ 0.123 µM); MIC [15, 32]: 0.025 µg/mL (≈ 0.0613 µM); MIC [18, 33]: 0.025 µg/mL (≈ 0.0613 µM); MIC [26]: 0.05 µg/mL (≈ 0.123 µM); MIC [27]: 0.05 µg/mL (≈ 0.123 µM); MIC [28]: 0.1 µg/mL (≈ 0.245 µM); MIC [29]: 0.05 µg/mL (≈ 0.123 µM); MIC [30]: 0.05 µg/mL (≈ 0.123 µM)
NCC1CCN(c2c(F)cc3c(=O)c(C(=O)O)cn(C4CC4)c3c2Cl)C1 (stereo not drawn) [Example 14, 8-Chloro-l-cyclopropyl-6-fluoro-l,4-dihydro-7-(3-aminomethyl-l-pyrrolidinyl)-4-oxo-3-quinolinecarboxylic acid hydrochloride]	0.025 µg/mL	0.05 µg/mL	0.05 µg/mL	0.39 µg/mL	0.0125 µg/mL	0.05 µg/mL	0.025 µg/mL	0.39 µg/mL	0.05 µg/mL	0.025 µg/mL	0.05 µg/mL	0.05 µg/mL	0.05 µg/mL	0.05 µg/mL	0.05 µg/mL	0.05 µg/mL	0.05 µg/mL	0.05 µg/mL	0.05 µg/mL	0.05 µg/mL	MIC ([8]; Staphylococcus aureus, S. aureus Smith, 10^6 cells/ml, standard strain): 0.0125 µg/mL; MIC [9]: 0.05 µg/mL; MIC [15]: 0.0125 µg/mL; MIC ([18]; IID670): 0.0125 µg/mL; MIC [26]: 0.05 µg/mL; MIC [27]: 0.05 µg/mL; MIC [28]: 0.1 µg/mL; MIC [29]: 0.025 µg/mL; MIC [30]: 0.05 µg/mL
